Laboratory results taken from paper PMC6406525, “A Biophysical Approach to the Identification of Novel ApoE Chemical Probes” (Biomolecules, 2019).

What was measured:
Type in all cases: binding
ApoE3 = biological target: T1, ApoE3 (Homo sapiens, UniProt P02649); assay: isothermal titration calorimetry (protein injected into compound)
T1 construct: gene APOE; His6-thioredoxin tag removed by HRV 3C protease; E. coli Rosetta2(DE3)
Excerpt: isothermal titration calorimetry (protein injected into compound) on ApoE3

ApoE2 = biological target: T2, ApoE2 (Homo sapiens, UniProt P02649, R176C); assay: as above
T2 construct: gene APOE; His6-thioredoxin tag removed by HRV 3C protease; E. coli Rosetta2(DE3)
T2 sequence (P02649 19-317 R176C): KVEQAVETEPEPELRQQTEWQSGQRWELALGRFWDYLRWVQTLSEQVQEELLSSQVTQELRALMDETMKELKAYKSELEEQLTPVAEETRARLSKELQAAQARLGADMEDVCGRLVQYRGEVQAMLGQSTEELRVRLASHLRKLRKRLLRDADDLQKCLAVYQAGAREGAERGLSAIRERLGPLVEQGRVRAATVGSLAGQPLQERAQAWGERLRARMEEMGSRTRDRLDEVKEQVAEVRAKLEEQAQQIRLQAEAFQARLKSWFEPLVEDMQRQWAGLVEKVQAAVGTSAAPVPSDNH
Excerpt: isothermal titration calorimetry (protein injected into compound) on ApoE2

ApoE4 [1] = biological target: T3, ApoE4 (Homo sapiens, UniProt P02649, C130R); assay: as above
T3 construct: gene APOE; full-length mature ApoE4, codon-optimized gene in pET17b; His6-thioredoxin tag removed by HRV 3C protease; E. coli Rosetta2(DE3)
T3 sequence (P02649 19-317 C130R): as the sequence (P02649 19-317 R176C) above, with C112R, C158R counted along it

ApoE4 [2] = biological target: T3, ApoE4; assay: microscale thermophoresis (Red-NHS labelled ApoE4, initial fluorescence)
Excerpt: microscale thermophoresis (Red-NHS labelled ApoE4, initial fluorescence) on ApoE4

T1 sequence (P02649 19-317): as the sequence (P02649 19-317 R176C) above, with C158R counted along it

A Kd (ApoE3) of 24 ± 9 µM, a Kd (ApoE2) of 67 ± 36 µM and a Kd (ApoE4 [1]; read-out: ApoE4) of 15 ± 10 µM were found for CCN(CC)CCOc1ccc(C(=C(Cl)c2ccccc2)c2ccccc2)cc1 [Clomifene] in this work.

A Kd (ApoE3) of 20 ± 3 µM, a Kd (ApoE2) of 33 ± 10 µM and a Kd (ApoE4 [1]; read-out: ApoE4) of 18 ± 12 µM were found for N[C@@H](Cc1cc(I)c(Oc2cc(I)c(O)c(I)c2)c(I)c1)C(=O)O [L-Thyroxine] in this work.

A Kd (ApoE3) of 47 ± 9 µM, a Kd (ApoE2) of 47 ± 32 µM and a Kd (ApoE4 [1]; read-out: ApoE4) of 45 ± 13 µM were found for Cc1ccc(Cl)c(Nc2ccccc2C(=O)O)c1Cl [Meclofenamic acid] in this work.

A Kd (ApoE3) of 119 ± 50 µM, a Kd (ApoE2) of 55 ± 14 µM and a Kd (ApoE4 [1]; read-out: ApoE4) of 38 ± 4 µM were found for O=C(O)c1cc2ccccc2c(Cc2c(O)c(C(=O)O)cc3ccccc23)c1O [Pamoic acid] in this work.

A Kd (ApoE4 [1]; read-out: binding affinity) of 3 ± 0.4 µM was found for Cc1ccc(C(=O)Nc2ccc(S(=O)(=O)O)c3cc(S(=O)(=O)O)cc(S(=O)(=O)O)c23)cc1NC(=O)c1cccc(NC(=O)Nc2cccc(C(=O)Nc3cc(C(=O)Nc4ccc(S(=O)(=O)O)c5cc(S(=O)(=O)O)cc(S(=O)(=O)O)c45)ccc3C)c2)c1 [Suramin] in this work.

A Kd (ApoE3) of 8 ± 1 µM, a Kd (ApoE2) of 6 ± 2 µM and a Kd (ApoE4 [1]; read-out: ApoE4) of 8 ± 2 µM were found for O=C(O)c1ccc2nc(-c3cc(Cl)cc(Cl)c3)oc2c1 [Tafamidis] in this work.

A Kd (ApoE4 [2]) of 67 ± 19 µM was found for CC/C(=C(\c1ccccc1)c1ccc(OCCN(C)C)cc1)c1ccccc1 [Tamoxifen] in this work.

A Kd (ApoE4 [2]) of 44 ± 6 µM was found for CN(C)CCOc1ccc(/C(=C(/CCCl)c2ccccc2)c2ccccc2)cc1 [Toremifene] in this work.
